Target: human MER (528-end) (Homo sapiens (Human), UniProt Q12866)
Experiment: HTRF Kinase Activity Biochemical Assay (KinEASE-TK)
Conditions: 10 uM ATP
Method in brief: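 Recombinant human MER (528-end) phosphorylated biotin-TK peptide substrate, 1 h at room temperature. Reaction stopped with detection buffer containing 0.375 nM Eu3+-cryptate anti-TK antibody and 0.062 uM streptavidin-XL665, 1 h further. Activity taken as HTRF ratio 665/620 nm ×10,000, 340 nm excitation.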

Sequence of human MER (528-end) (Q12866 528-999 limits assumed): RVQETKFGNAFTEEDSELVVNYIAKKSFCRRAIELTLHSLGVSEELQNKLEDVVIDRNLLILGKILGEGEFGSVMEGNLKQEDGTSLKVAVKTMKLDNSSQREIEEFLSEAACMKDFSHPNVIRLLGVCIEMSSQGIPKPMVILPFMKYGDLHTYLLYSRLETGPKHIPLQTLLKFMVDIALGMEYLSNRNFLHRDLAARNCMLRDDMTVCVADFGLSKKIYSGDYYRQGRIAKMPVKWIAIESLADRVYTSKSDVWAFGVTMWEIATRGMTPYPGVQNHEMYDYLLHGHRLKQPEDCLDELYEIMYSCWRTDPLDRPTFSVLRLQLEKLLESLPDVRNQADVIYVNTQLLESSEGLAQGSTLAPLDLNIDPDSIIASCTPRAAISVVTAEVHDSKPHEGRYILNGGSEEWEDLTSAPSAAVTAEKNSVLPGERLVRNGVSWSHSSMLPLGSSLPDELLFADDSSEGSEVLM

Row | Structure (SMILES) | IC50
1 | Cn1cc(-c2cnc(N)c(C(=O)N[C@@H]3CCN(C(=O)Oc4cccc(-c5ccc(CNC6CNC6)cc5)c4)C3)c2)cn1 [Example 306, 4′-((azetidin-3-ylamino)methyl)-[1,1′-biphenyl]-3-yl (R)-3-(2-amino-5-(1-methyl-1H-pyrazol-4-yl)nicotinamido)pyrrolidine-1-carboxylate] | 100 to 1000 nM
2 | Cn1cc(-c2cnc(N)c(C(=O)N[C@@H]3CCN(C(=O)N4CCc5c(N)cccc5C4)C3)c2)cn1 [Example 28, (R)-2-amino-N-(1-(5-amino-1,2,3,4-tetrahydroisoquinoline-2-carbonyl)pyrrolidin-3-yl)-5-(1-methyl-1H-pyrazol-4-yl)nicotinamide] | > 1000 nM
3 | Cn1cc(-c2cnc(N)c(C(=O)N[C@@H]3CCN(C(=O)c4ccc(/C=C/c5ccncc5)cc4)C3)c2)cn1 [Example 824, (R,E)-2-amino-5-(1-methyl-1H-pyrazol-4-yl)—N-(1-(4-(2-(pyridin-4-yl)vinyl)benzoyl)pyrrolidin-3-yl)nicotinamide] | 100 to 1000 nM
4 | Cn1cc(-c2cnc(N)c(C(=O)N[C@@H]3CCN(C(=O)O[C@H]4C[C@H]5CC[C@@H]4C5)C3)c2)cn1 [Example 105, (1R,2S,4S)-bicyclo[2.2.1]heptan-2-yl (R)-3-(2-amino-5-(1-methyl-1H-pyrazol-4-yl)nicotinamido)pyrrolidine-1-carboxylate] | > 1000 nM
5 | CC1(C)[C@H]2CC=C(CN3CC[C@@H](NC(=O)c4cc(-c5cnn(C6CCNCC6)c5)cnc4N)C3)[C@@H]1C2 [Example 170, 2-amino-N—((R)-1-(((1R,5S)-6,6-dimethylbicyclo[3.1.1]hept-2-en-2-yl)methyl)pyrrolidin-3-yl)-5-(1-(piperidin-4-yl)-1H-pyrazol-4-yl)nicotinamide] | > 1000 nM
6 | Cn1cc(-c2cnc(N)c(C(=O)N[C@@H]3CCN(C(=O)Nc4cccc(Cl)c4)C3)c2)cn1 [Example 14, (R)-2-amino-N-(1-((3-chlorophenyl)carbamoyl)pyrrolidin-3-yl)-5-(1-methyl-1H-pyrazol-4-yl)nicotinamide] | > 1000 nM
7 | Cn1cc(-c2cnc(N)c(C(=O)N[C@@H]3CCN(CCOCc4ccccc4)C3)c2)cn1 [Example 229, (R)-2-amino-N-(1-(2-(benzyloxy)ethyl)pyrrolidin-3-yl)-5-(1-methyl-1H-pyrazol-4-yl)nicotinamide] | > 1000 nM
8 | Cn1cc(-c2cnc(N)c(C(=O)N[C@@H]3CCN(C(=O)c4cccc(-c5cccc(C(=O)N6CCNCC6)c5)c4)C3)c2)cn1 [Example 464, (R)-2-amino-5-(1-methyl-1H-pyrazol-4-yl)-N-(1-(3′-(piperazine-1-carbonyl)-[1,1′-biphenyl]-3-carbonyl)pyrrolidin-3-yl)nicotinamide] | > 1000 nM
9 | Cn1cc(-c2cnc(N)c(C(=O)N[C@@H]3CCN(C(=O)Oc4cccc5cccnc45)C3)c2)cn1 [Example 73, quinolin-8-yl (R)-3-(2-amino-5-(1-methyl-1H-pyrazol-4-yl)nicotinamido)pyrrolidine-1-carboxylate] | > 1000 nM
10 | Nc1ncc(-c2cnn(C3CCNCC3)c2)cc1C(=O)N[C@@H]1CCN(Cc2ccc(F)c(F)c2)C1 [Example 160, (R)-2-amino-N-(1-(3,4-difluorobenzyl)pyrrolidin-3-yl)-5-(1-(piperidin-4-yl)-1H-pyrazol-4-yl)nicotinamide] | > 1000 nM
11 | Cn1cc(-c2cnc(N)c(C(=O)N[C@@H]3CCN(Cc4cccc(Br)c4)C3)c2)cn1 [Example 231, (R)-2-amino-N-(1-(3-bromobenzyl)pyrrolidin-3-yl)-5-(1-methyl-1H-pyrazol-4-yl)nicotinamide] | > 1000 nM
12 | Cn1cc(-c2cnc(N)c(C(=O)N[C@@H]3CCN(C(=O)Oc4cccc(-c5ccc(CO)cc5)c4)C3)c2)cn1 [Example 280, 4′-(hydroxymethyl)-[1,1′-biphenyl]-3-yl (R)-3-(2-amino-5-(1-methyl-1H-pyrazol-4-yl)nicotinamido)pyrrolidine-1-carboxylate] | 100 to 1000 nM
13 | Cn1cc(-c2cnc(N)c(C(=O)NC[C@H]3CCCN3C(=O)c3ccc(-c4ccccc4)cc3)c2)cn1 [Example 736, (R)—N-((1-([1,1′-biphenyl]-4-carbonyl)pyrrolidin-2-yl)methyl)-2-amino-5-(1-methyl-1H-pyrazol-4-yl)nicotinamide] | > 1000 nM
14 | Cn1cc(-c2cnc(N)c(C(=O)N[C@@H]3CCN(C(=S)Nc4ccc(F)cc4)C3)c2)cn1 [Example 42, (R)-2-amino-N-(1-((4-fluorophenyl)carbamothioyl)pyrrolidin-3-yl)-5-(1-methyl-1H-pyrazol-4-yl)nicotinamide] | > 1000 nM
15 | Cn1cc(-c2cnc(N)c(C(=O)N[C@@H]3CCN(C(=O)c4ccc(-c5ccccc5)cc4)C3)n2)cn1 [Example 744, (R)—N-(1-([1,1′-biphenyl]-4-carbonyl)pyrrolidin-3-yl)-3-amino-6-(1-methyl-1H-pyrazol-4-yl)pyrazine-2-carboxamide] | 100 to 1000 nM
16 | Cn1cc(-c2cnc(N)c(C(=O)N[C@@H]3CCN(C(=O)c4ccc5ccccc5c4)C3)c2)cn1 [Example 405, (R)—N-(1-(2-naphthoyl)pyrrolidin-3-yl)-2-amino-5-(1-methyl-1H-pyrazol-4-yl)nicotinamide] | 100 to 1000 nM
17 | Cn1cc(-c2cnc(N)c(C(=O)N[C@@H]3CCN(C(=O)c4ccc(-c5cc(F)ccc5Cl)cc4Cl)C3)c2)cn1 [Example 693, (R)-2-amino-N-(1-(2′,3-dichloro-5′-fluoro-[1,1′-biphenyl]-4-carbonyl)pyrrolidin-3-yl)-5-(1-methyl-1H-pyrazol-4-yl)nicotinamide] | > 1000 nM
18 | CN1CCN(C(=O)Cc2ccc(-c3cccc(C(=O)N4CC[C@@H](NC(=O)c5cc(-c6cnn(C)c6)cnc5N)C4)c3)cc2)CC1 [Example 454, (R)-2-amino-5-(1-methyl-1H-pyrazol-4-yl)-N-(1-(4′-(2-(4-methylpiperazin-1-yl)-2-oxoethyl)-[1,1′-biphenyl]-3-carbonyl)pyrrolidin-3-yl)nicotinamide] | > 1000 nM
19 | Cn1cc(-c2cnc(N)c(C(=O)N[C@@H]3CCN(C(=O)c4nc(-c5ccccc5)oc4C(F)(F)F)C3)c2)cn1 [Example 458, (R)-2-amino-5-(1-methyl-1H-pyrazol-4-yl)-N-(1-(2-phenyl-5-(trifluoromethyl)oxazole-4-carbonyl)pyrrolidin-3-yl)nicotinamide] | > 1000 nM
20 | Cn1cc(-c2cnc(N)c(C(=O)N[C@@H]3CCN(C(=O)C=Cc4ccccc4)C3)c2)cn1 [Example 424, (R)-2-amino-N-(1-cinnamoylpyrrolidin-3-yl)-5-(1-methyl-1H-pyrazol-4-yl)nicotinamide] | > 1000 nM

The remaining lines, values ahead:

Row | IC50 | Structure (SMILES)
21 | > 1000 nM | Nc1ncc(-c2cnn(C3CCNCC3)c2)cc1C(=O)N[C@@H]1CCN(Cc2ccccc2C(F)(F)F)C1 [Example 168, (R)-2-amino-5-(1-(piperidin-4-yl)-1H-pyrazol-4-yl)-N-(1-(2-(trifluoromethyl)benzyl)pyrrolidin-3-yl)nicotinamide]
22 | 100 to 1000 nM | CC(=O)c1ccc(-c2ccc(C(=O)N3CC[C@@H](NC(=O)c4cc(-c5cnn(C)c5)cnc4N)C3)cc2)s1 [Example 538, (R)—N-(1-(4-(5-acetylthiophen-2-yl)benzoyl)pyrrolidin-3-yl)-2-amino-5-(1-methyl-1H-pyrazol-4-yl)nicotinamide]
23 | > 1000 nM | Cn1cc(-c2cnc(N)c(C(=O)N[C@@H]3CCN(C(=O)c4ccc(-c5ccc(F)nc5)cc4)C3)c2)cn1 [Example 357, (R)-2-amino-N-(1-(4-(6-fluoropyridin-3-yl)benzoyl)pyrrolidin-3-yl)-5-(1-methyl-1H-pyrazol-4-yl)nicotinamide]
24 | > 1000 nM | Cn1cc(-c2cnc(N)c(C(=O)N[C@@H]3CCN(C(=O)Oc4ccc(S(C)(=O)=O)cc4)C3)c2)cn1 [Example 77, 4-(methylsulfonyl)phenyl (R)-3-(2-amino-5-(1-methyl-1H-pyrazol-4-yl)nicotinamido)pyrrolidine-1-carboxylate]
25 | > 1000 nM | Cc1nn(-c2ccccc2)c(C)c1-c1ccc(C(=O)N2CC[C@@H](NC(=O)c3cc(-c4cnn(C)c4)cnc3N)C2)cc1 [Example 519, (R)-2-amino-N-(1-(4-(3,5-dimethyl-1-phenyl-1H-pyrazol-4-yl)benzoyl)pyrrolidin-3-yl)-5-(1-methyl-1H-pyrazol-4-yl)nicotinamide]
26 | 100 to 1000 nM | CCc1ccccc1-c1ccc(C(=O)N2CC[C@@H](NC(=O)c3cc(-c4cnn(C)c4)cnc3N)C2)cc1 [Example 353, (R)-2-amino-N-(1-(2′-ethyl-[1,1′-biphenyl]-4-carbonyl)pyrrolidin-3-yl)-5-(1-methyl-1H-pyrazol-4-yl)nicotinamide]
27 | 100 to 1000 nM | Cn1cc(-c2cnc(N)c(C(=O)N[C@@H]3CCN(C(=O)c4ccc(-c5ccccc5)cc4N)C3)c2)cn1 [Example 728, (R)-2-amino-N-(1-(3-amino-[1,1′-biphenyl]-4-carbonyl)pyrrolidin-3-yl)-5-(1-methyl-1H-pyrazol-4-yl)nicotinamide]
28 | > 1000 nM | Cc1cc(C)cc(NC(=O)N2CC[C@@H](NC(=O)c3cc(-c4cnn(C)c4)cnc3N)C2)c1 [Example 4, (R)-2-amino-N-(1-((3,5-dimethylphenyl)carbamoyl)pyrrolidin-3-yl)-5-(1-methyl-1H-pyrazol-4-yl)nicotinamide]
29 | > 1000 nM | Cn1cc(-c2cnc(N)c(C(=O)N[C@@H]3CCN(C(=O)N[C@H]4CCC[C@@H]4OCc4ccccc4)C3)c2)cn1 [Example 40, 2-amino-N—((R)-1-(((1S,2S)-2-(benzyloxy)cyclopentyl)carbamoyl)pyrrolidin-3-yl)-5-(1-methyl-1H-pyrazol-4-yl)nicotinamide]
30 | 100 to 1000 nM | Cn1cc(-c2cnc(N)c(C(=O)N[C@@H]3CCN(C(=O)Nc4cccc(-c5ccc(CO)cc5)c4)C3)c2)cn1 [Example 259, (R)-2-amino-N-(1-((4′-(hydroxymethyl)-[1,1′-biphenyl]-3-yl)carbamoyl)pyrrolidin-3-yl)-5-(1-methyl-1H-pyrazol-4-yl)nicotinamide]
31 | > 1000 nM | Cn1cc(-c2cncc(C(=O)N[C@@H]3CCN(C(=O)Nc4cc(Cl)cc(Cl)c4)C3)c2)cn1 [Example 22, (R)—N-(1-((3,5-dichlorophenyl)carbamoyl)pyrrolidin-3-yl)-5-(1-methyl-1H-pyrazol-4-yl)nicotinamide]

— US12378224B2 (Dong-A Socio Holdings Co., Ltd., priority 2016, dated 2025)
